Source: patent US20120178089A1, “MATERIALS AND METHODS FOR THE IDENTIFICATION OF DRUG-RESISTANT CANCERS AND TREATMENT OF SAME” (priority 2009, published 2012)
Entries after “also recorded” stand apart in the source; their conditions may differ.

Experiments:
[1] = tested on: NEK2-transfected ARP1, KMS28PE, H1299, MCF7, and MDA231 cells; test: Treatment of NEK2-overexpressing cancer cells with chemotherapeutic drugs; format: cell-based; details: 48 hours; for growth inhibition in NEK2-transfected cells compared with EV-transfected controls: P<0.05; for cell death in NEK2-transfected cells compared with EV-transfected controls: P<0.05, data not shown
Protocol: Treatment of NEK2-overexpressing MM cells with chemotherapeutic drugs. To determine the role of NEK2 in cancer drug-resistance, ARK, KMS28PE, OCI-MY5, H1299, and MCF7 cell lines were transfected with NEK2-cDNA to overexpress NEK2 by lentivirus expression vector system. 1×10^6 cells were treated with bortezomib at 5 nM for 48 hours in the cultures. Cell proliferation was evaluated by cell counting with a hemocytometer, and dead cells were determined by trypan blue staining, from which dead-cell fraction was calculated. Untreated cells and empty-vector (EV)-transfected cells with or without drug-treatment were used as controls.
To determine whether NEK2 over-expression is sufficient to confer drug-resistance in cancer cells, NEK2-transfected ARP1, KMS28PE, H1299, MCF7, and MDA231 cells were then treated with bortezomib at the dose of 4, 8, and 16 nM bortezomib for 48 hours and cell death was evaluated. EV-transfected cells with or without bortezomib served as controls.

[2] = target: Purified recombinant NEK2 kinase protein (Homo sapiens, UniProt P51955); details: read-out: IC50 (NEK2 kinase activity, titration assays); titration of screening hits
Protocol: NEK2 kinase activity assay. Purified recombinant NEK2 kinase protein (Cell Signaling Technology, Beverley, Mass.), was added to 96 well plates in the appropriate reaction buffer. Compounds were added to each well to a final concentration of 5 μM. Reaction mixtures were incubated for 15 minutes. The Kinase-Glo Luminescent Kinase Assay kit (Promega, Madison, Wis.) was used to determine the remaining ATP, which is inversely related to kinase activity.
By NEK2 kinase activity assay, we screened a Kinase Inhibitor Library from Calbiochem Inc. (San Diego, Calif.).

[3] = tested on: NEK2 expression in MM, lung cancer and breast cancer cells; test: Inhibition of NEK2 expression in cancer cell lines (western blots); format: cell-based; details: especially NEK2 over-expressed
Protocol: FIG. 7a is a graph showing the results of screening a Kinase Inhibitor Library.
Western Blots. Western blots were performed to examine the protein levels in MM cells as previously described in Xiong, W., et al. Blood 112, 4235-4246 (2008) and Zhan, F., et al. Blood 109, 4995-5001 (2007). NEK2 antibodies were purchased from BD Biosciences Pharmingen (San Jose, Calif.); and all other primary antibodies were purchased from Cell Signaling Technology (Beverly, Mass.). β-actin was used to normalize the amount of protein in each sample.

[4] = tested on: NEK2-transfected OCI-MY5, H1299 and MCF7 cells and EV control cells; test: Cytotoxic effects of KP372-1 on NEK2-overexpressing cell lines; format: cell-based; details: 5 μM, 5 days
Protocol: Cell proliferation assay. Briefly, cancer cells transfected with NEK2 cDNA or NEK2 shRNA and their relative controls of empty vector or Scrambled shRNA were seeded in 12-well plates at 0.2×10^6 per well. All tests were set in triplicate or quadruplicate. Cultured cells were counted with a hemocytometer to evaluate cellular proliferation, and dead cells were determined by trypan blue staining, from which dead-cell fraction was calculated. Cell proliferation assays were done at various time points for at least one week after infection or addition doxycycline one day.
We then determined the cytotoxic effects of this compound KP372-1 on the NEK2-overexpressing myeloma cell lines. Cultures of cell lines transfected with a vector for overexpression of NEK2 (myeloma OCI-MY5, a lung cancer cell line H1299, and a breast cancer cell line MCF7) were treated with 5 μM KP372-1 for 5 days. Cell proliferation and cell death were evaluated. Empty vector (EV)-transfected cancer cells with or without treatment were used as controls.

[5] = tested on: KMS28PE and ARP1 cells, bortezomib-resistant (vel-R) and bortezomib-sensitive; test: KP372-1 treatment of bortezomib-resistant and bortezomib-sensitive myeloma cell lines; format: cell-based
Protocol: FIGS. 9a-9d are a series of graphs showing the treatment with KP372-1 overcomes drug-resistance in cancer cells. The myeloma cell lines KMS28PE (A & B) and ARP1 (C & D) including both bortezomib-sensitive and bortezomib-resistant (vel-R) were treated with KP372-1 at concentrations of 1 μM and 5 μM for 5 days.
To determine whether the NEK2 inhibitor KP372-1 can overcome drug resistance in KMS28PE- and ARP1-bortezomib resistant myeloma cell lines, we treated with KP372-1 at concentrations of 1 μM and 5 μM.

[6] = tested on: 5TGM1 multiple myeloma cells; test: Efficacy of KP372-1 in a mouse model of multiple myeloma; format: in vivo, C57BL/KaLwRij mice; details: for tumor burden (tumor volumes): FIG. 10b
Protocol: Efficacy of KP372-1 in a mouse model of multiple myeloma. C57BL/KaLwRij mice (n=5 in each group) were injected with 1×10^6 5TGM1 cells through their tail vein. Seven days following tumor inoculation, tumor-bearing mice were treated with KP372-1, bortezomib or a combination of KP372-1 with bortezomib.
KP372-1 (NI-2) was used to treat 8 mice in each study group including four groups with single agent or combination with bortezomib (velcade). 1×10^6 5TGM1 multiple myeloma cells (in 100 μL PBS) were injected into each mouse through the tail vein and tumors were allowed to grow for 1 week. Treatment with bortezomib (1 mg/kg, 2 times/week, sc), NI-2 (0.8 mg/kg 3 times/week, sc), and the combination of KP372-1 (NI-2) with bortezomib (velcade) was performed 1 week after injection.
We also developed a bortezomib-resistant 5TGM1 line (5TGM1-DR) using a stepwise increase of the bortezomib concentration in the cultures. […] We examined the effects of KP372-1 treatment on the growth of 5TGM1 myeloma mouse. KP372-1 was given to 8 mice in each of the five groups, including single agent or combination treatment with bortezomib: 5TGM1-WT, 5TGM1-DR, 5TGM1-DR+KP372-1 (0.8 mg/kg, 3 times/week, s.c), 5TGM1-DR+bortezomib (1 mg/kg, 2 times/week, s.c), 5TGM1-DR+bortezomib+KP372-1.

RPMI8226 cells = test: Bortezomib treatment of bortezomib-resistant and parental RPMI8226 cells; format: cell-based; details: Homo sapiens
Text: (§1) To test the role of NEK2 in promoting cell growth, we over-expressed NEK2 in normal fibroblasts BJ, the MM cell lines ARP1, KMS28PE, and OCI-MY5, the lung cancer cell line H1299, and breast cancer cell line MDA231 by lentivirus-mediated NEK2-cDNA transfection (FIG. 2a). […] We subsequently examined the role of NEK2 in myeloma drug-resistance. We developed 2 bortezomib-resistant MM cell lines, RPMI 8226 and ARP1, by a stepwise increase of the bortezomib concentration in cultures.

ARP1 cells = test: Bortezomib treatment of bortezomib-resistant and parental ARP1 cells; format: cell-based
Text: as §1

5TGM1 cells = test: Bortezomib treatment of bortezomib-resistant and wild-type 5TGM1 cells; format: cell-based
[7] = NEK2-transfected and EV control cells
[8] = KP372-1 1 μM and 5 μM, 5 days, both vel-R and sensitive lines

Sequence of Purified recombinant NEK2 kinase protein (P51955 whole entry): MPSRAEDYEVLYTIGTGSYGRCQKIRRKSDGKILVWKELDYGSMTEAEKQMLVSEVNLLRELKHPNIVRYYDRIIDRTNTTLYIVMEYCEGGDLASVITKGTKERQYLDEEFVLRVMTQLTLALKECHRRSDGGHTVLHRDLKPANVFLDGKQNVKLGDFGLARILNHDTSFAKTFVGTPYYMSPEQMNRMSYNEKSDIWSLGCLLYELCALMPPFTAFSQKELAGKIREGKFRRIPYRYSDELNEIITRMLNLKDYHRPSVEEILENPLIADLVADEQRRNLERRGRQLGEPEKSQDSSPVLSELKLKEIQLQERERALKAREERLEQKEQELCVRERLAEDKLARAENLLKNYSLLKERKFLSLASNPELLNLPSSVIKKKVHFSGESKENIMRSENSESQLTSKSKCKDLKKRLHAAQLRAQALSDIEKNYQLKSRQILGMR

## COc1cccc2c1C(=O)c1c(O)c3c(c(O)c1C2=O)C[C@@](O)(C(=O)CO)C[C@@H]3O[C@H]1C[C@H](N)[C@H](O)[C@H](C)O1 [doxorubicin]
[1]; 100 nM
  growth inhibition in NEK2-transfected cells compared with EV-transfected controls: significantly less growth inhibition
  cell death in NEK2-transfected cells compared with EV-transfected controls: significantly less

## O=C1c2ccccc2-c2nc3nnnn3nc21.O=C1c2ccccc2-c2nn3nnnc3nc21 [KP372-1]
[2]
  IC50: 67 nM
[3]
  NEK2 expression: significantly inhibits NEK2 expression
[3]; listed as NI-2
  NEK2 expression: inhibits NEK2 expression
[4]
  anti-proliferative and apoptotic activity, NEK2-transfected versus EV control cells: stronger anti-proliferative and apoptotic activity in the NEK2-transfected cells than the EV control cells
[4]; [7]
  cell death: induced significantly cell death; also recorded: induced cell growth inhibition and death
  growth inhibition: induced significantly cell death and growth inhibition
[5]; [8]
  cell death: cell death
  growth inhibition: significant growth inhibition
[6]; P<0.05
  tumor burden (tumor volumes): reduced tumor burden
[6]; KP372-1 0.8 mg/kg, 3 times/week, s.c, P<0.01
  mouse survival, 5TGM1-DR mice: able to overcome drug resistance and extend mouse survival
[6]; NI-2 0.8 mg/kg 3 times/week sc, bortezomib 1 mg/kg 2 times/week sc, start 1 week after injection, P<0.05
  growth of 5TGM1 tumors compared with untreated control: significantly inhibited the growth of 5TGM1 tumors

## CC(C)C[C@H](NC(=O)[C@H](Cc1ccccc1)NC(=O)c1cnccn1)B(O)O [bortezomib]
RPMI8226 cells; RPMI-8226, parental RPMI8226 cells
  IC50: 4.75 nM
RPMI8226 cells; bortezomib-resistant RPMI8226 cells
  IC50: 250 nM
ARP1 cells; ARP-1, bortezomib-resistant ARP1 cells
  IC50: 25.8 nM
ARP1 cells; ARP-1, parental ARP1 cells
  IC50: 7.47 nM
5TGM1 cells; 5TGM1, 5TGM1-R (bortezomib-resistant)
  IC50: 250 nM
5TGM1 cells; 5TGM1, wild-type 5TGM1 cells (5TGM1-WT)
  IC50: 5.26 nM
[1]; 8 nM
  growth inhibition in NEK2-transfected cells compared with EV-transfected controls: significantly less growth inhibition
[5]; bortezomib treatment
  cell death in drug-resistant cells compared with parental controls: significantly less growth inhibition and cell death
  growth inhibition in drug-resistant cells compared with parental controls: significantly less growth inhibition
[6]; P<0.05
  tumor burden (tumor volumes): reduced tumor burden

## COc1cc([C@@H]2c3cc4c(cc3[C@@H](O[C@@H]3O[C@@H]5CO[C@@H](C)O[C@H]5[C@H](O)[C@H]3O)[C@H]3COC(=O)[C@H]23)OCO4)cc(OC)c1O [etoposide]
[1]; 100 nM
  growth inhibition in NEK2-transfected cells compared with EV-transfected controls: significantly less growth inhibition
  cell death in NEK2-transfected cells compared with EV-transfected controls: significantly less
